Assay results as given in ChEMBL document CHEMBL3885861, “Open TG-GATES”.

Species: Rattus norvegicus
Assay: Open TG-GATES - Regimen: Single
Type: toxicity, organism-based, Sprague-Dawley
Parameters: regimen Single, gender Male, age 6 weeks
Conditions: in vivo, po, 100 mg/kg, route gavage, dose level High; for APTT / Bas / Eos / Fbg / Hb / Ht / Lym / MCH / MCHC / MCV / Mono / Neu / PT / Plat / RBC / Ret / WBC: tissue Blood; for KIDNEY_L / KIDNEY_R / KIDNEY_TOTAL: tissue Kidney; for LIVER: tissue Liver; for A/G / ALP / ALT / AST / BUN / CRE / Ca / Cl / DBIL / GLC / IP / K / LDH / Na / PL / RALB / TBIL / TC / TG / TP / gamma-GTP: tissue Plasma

## OCCOCCN1CCN(C(c2ccccc2)c2ccc(Cl)cc2)CC1 (configuration not stated) [HYDROXYZINE]
3 h
  TERMINAL_BW: 192.6 g
  APTT: 16.4 s
  Bas: 0.2%
  Eos: 0.8%
  Fbg: 276.2 mg/dL
  Hb: 12.4 g/dL
  Ht: 38.5%
  Lym: 79.6%
  MCH: 21.5 pg
  MCHC: 32.3%
  MCV: 66.5 fL
  Mono: 2.8%
  Neu: 16%
  PT: 16 s
  Plat: 107.8 x10_4/uL
  RBC: 579.6 x10_4/ul
  Ret: 9.2%
  WBC: 66.5 x10_2/uL
  KIDNEY_L: 0.9 g
  KIDNEY_R: 0.9 g
  KIDNEY_TOTAL: 1.8 g
  LIVER: 8.5 g
  A/G: 0.9
  ALP: 1704.8 IU/L
  ALT: 45.4 IU/L
  AST: 78 IU/L
  BUN: 10.2 mg/dL
  CRE: 0.2 mg/dL
  Ca: 10.7 mg/dL
  Cl: 105.8 meq/L
  DBIL: 0.008 mg/dL
  GLC: 167.2 mg/dL
  IP: 9.5 mg/dL
  K: 4.4 meq/L
  LDH: 107.6 IU/L
  Na: 142.4 meq/L
  PL: 132.4 mg/dL
  RALB: 2.5 g/dL
  TBIL: 0.048 mg/dL
  TC: 65.8 mg/dL
  TG: 40 mg/dL
  TP: 5.4 g/dL
  gamma-GTP: 1 IU/L
6 h
  TERMINAL_BW: 190.6 g
  APTT: 16.5 s
  Bas: 0%
  Eos: 0.8%
  Fbg: 260.2 mg/dL
  Hb: 12.8 g/dL
  Ht: 39.9%
  Lym: 80.4%
  MCH: 21.2 pg
  MCHC: 32.1%
  MCV: 65.8 fL
  Mono: 2.6%
  Neu: 15.6%
  PT: 16 s
  Plat: 118.2 x10_4/uL
  RBC: 606.4 x10_4/ul
  Ret: 8.5%
  WBC: 87.3 x10_2/uL
  KIDNEY_L: 0.9 g
  KIDNEY_R: 0.9 g
  KIDNEY_TOTAL: 1.8 g
  LIVER: 7.9 g
  A/G: 0.8
  ALP: 1674.2 IU/L
  ALT: 39.8 IU/L
  AST: 78.2 IU/L
  BUN: 8.6 mg/dL
  CRE: 0.2 mg/dL
  Ca: 10.7 mg/dL
  Cl: 106.8 meq/L
  DBIL: 0.01 mg/dL
  GLC: 180.8 mg/dL
  IP: 9.7 mg/dL
  K: 4.2 meq/L
  LDH: 64.2 IU/L
  Na: 141.8 meq/L
  PL: 121.8 mg/dL
  RALB: 2.4 g/dL
  TBIL: 0.062 mg/dL
  TC: 63.8 mg/dL
  TG: 28 mg/dL
  TP: 5.3 g/dL
  gamma-GTP: 1 IU/L
9 h
  TERMINAL_BW: 190.3 g
  APTT: 15.9 s
  Bas: 0.2%
  Eos: 0.8%
  Fbg: 288.6 mg/dL
  Hb: 13 g/dL
  Ht: 40.5%
  Lym: 78.8%
  MCH: 21.5 pg
  MCHC: 32%
  MCV: 67.2 fL
  Mono: 2.8%
  Neu: 16.6%
  PT: 15.6 s
  Plat: 116.3 x10_4/uL
  RBC: 603.4 x10_4/ul
  Ret: 8.6%
  WBC: 75.7 x10_2/uL
  KIDNEY_L: 0.9 g
  KIDNEY_R: 0.9 g
  KIDNEY_TOTAL: 1.8 g
  LIVER: 7.7 g
  A/G: 0.9
  ALP: 1671.6 IU/L
  ALT: 36.2 IU/L
  AST: 76.6 IU/L
  BUN: 8.2 mg/dL
  CRE: 0.2 mg/dL
  Ca: 10.6 mg/dL
  Cl: 106.6 meq/L
  DBIL: 0.016 mg/dL
  GLC: 182.4 mg/dL
  IP: 10.6 mg/dL
  K: 4.3 meq/L
  LDH: 63 IU/L
  Na: 142 meq/L
  PL: 124.4 mg/dL
  RALB: 2.5 g/dL
  TBIL: 0.066 mg/dL
  TC: 64.6 mg/dL
  TG: 34.2 mg/dL
  TP: 5.4 g/dL
  gamma-GTP: 1 IU/L
24 h
  TERMINAL_BW: 198.7 g
  APTT: 16.8 s
  Bas: 0%
  Eos: 0.8%
  Fbg: 253.6 mg/dL
  Hb: 13.3 g/dL
  Ht: 40.4%
  Lym: 78.4%
  MCH: 22.2 pg
  MCHC: 32.9%
  MCV: 67.4 fL
  Mono: 3.6%
  Neu: 16.4%
  PT: 16.8 s
  Plat: 123.7 x10_4/uL
  RBC: 599.6 x10_4/ul
  Ret: 7.7%
  WBC: 74.7 x10_2/uL
  KIDNEY_L: 0.9 g
  KIDNEY_R: 0.9 g
  KIDNEY_TOTAL: 1.9 g
  LIVER: 9 g
  A/G: 0.8
  ALP: 1880 IU/L
  ALT: 45.6 IU/L
  AST: 75.8 IU/L
  BUN: 15.6 mg/dL
  CRE: 0.2 mg/dL
  Ca: 11.1 mg/dL
  Cl: 107 meq/L
  DBIL: 0.016 mg/dL
  GLC: 181.6 mg/dL
  IP: 7.7 mg/dL
  K: 4.2 meq/L
  LDH: 76 IU/L
  Na: 141.4 meq/L
  PL: 135 mg/dL
  RALB: 2.6 g/dL
  TBIL: 0.06 mg/dL
  TC: 75.4 mg/dL
  TG: 52.2 mg/dL
  TP: 5.6 g/dL
  gamma-GTP: 0.6 IU/L
